Experiments:
[1] = system: non-insulin dependent model for polycystic ovary syndrome (PCOS) induced by dehydroepiandrosterone (DHEA) in rats; assay: Concentration of testosterone in plasma, DHEA-induced PCOS model in rats; type: in vivo, Sprague-Dawley rats
Method: (§1) The study objective was to assess the effect of metformin in a non-insulin dependent model for polycystic ovary syndrome (PCOS) induced by dehydroepiandrosterone (DHEA) in rats.
(§2) The formulations to be tested were: • Gels with Metformin at a concentration of 2 mg/mL (FT-147), 20 mg/mL (FT-148) and 200 mg/mL (FT-149). • Gel without Metformin (Placebo; FT-150).
(§3) Female 2-3 weeks-old Sprague-Dawley rats were used.
(§4) Four experimental groups with 8 animals each were used in the study: • Group A: Control=Placebo+DHEA • Group B: Dose 1 Trial Substance (0.016 mg/animal)+DHEA • Group C: Dose 2 Trial Substance (0.16 mg/animal)+DHEA • Group D: Dose 3 Trial Substance (1.6 mg/animal)+DHEA
Each animal's dose was calculated based on the concentration of each formulation and the administration volume: • Dose 1: formulation of 2 mg/mL with administration of 8 μl/animal=0.016 mg/animal • Dose 2: formulation of 20 mg/mL with administration of 8 μl/animal=0.16 mg/animal • Dose 3: formulation of 200 mg/mL with administration of 8 μl/animal=1.6 mg/animal […]
Plasma was obtained from each blood sample by centrifugation at 5000 g for 5 minutes, which was frozen for later assessment (quantitative determinations) of testosterone levels by rat-specific commercial immunoassay kits (EIA).
Testosterone concentrations in the plasma samples from all animals were determined at the end of the study (Day 15).

[2] = system: non-insulin dependent model for polycystic ovary syndrome (PCOS) induced by dehydroepiandrosterone (DHEA) in rats; assay: Histological assessment of ovaries (no. of atretic follicles), DHEA-induced PCOS model in rats; type: in vivo, Sprague-Dawley rats
Method: as §1, §2, §3, §4
Each animal's dose was calculated based on the concentration of each formulation and the administration volume: • Dose 1: formulation of 2 mg/mL with administration of 8 μl/animal=0.016 mg/animal • Dose 2: formulation of 20 mg/mL with administration of 8 μl/animal=0.16 mg/animal • Dose 3: formulation of 200 mg/mL with administration of 8 μl/animal=1.6 mg/animal
The trial substance (doses of 0.016, 0.16 and 1.6 mg/animal) and the control substance were administered intravaginally as an aqueous gel at a volume of 8 μl/animal.
The DHEA solution was prepared in a sesame seed oil prior to administration and was injected subcutaneously in a skin fold in the posterior thoracic area (dorsal) at a volume of 0.2 mL. […]

For `CN(C)C(=N)NC(=N)N` [metformin, N,N-dimethylimidodicarbonimidic diamide], the “Testosterone plasma levels versus control group” value ([1]; high dose, intravaginal) was “very significant reduction”, the “Plasma levels of testosterone” value ([1]; vaginal administration) was “significantly decreases” and the “Number of atretic follicles versus control group” value ([2]; intermediate dose, intravaginal) was “significant reduction”. The “Number of atretic follicles in the polycystic ovaries” value ([2]; vaginal administration) was “a decrease”.

Source: patent US9339458B2, “Use of vaginal insulin sensitizing agents” (ITF RESEARCH PHARMA, S.L.U., priority 2009, dated 2016)
